Drawing on ChEMBL document CHEMBL1141847, “A new antibiotic nortriterpene quinone methide from Maytenus catingarum” (1999), this text covers Activity and MIC for one compound.

What is called MIC is the lowest concentration that inhibits growth of the organism.

For one experiment, the system named is Escherichia coli. Briefly: Antimicrobial activity against Escherichia coli CECT99. The class given is functional, organism-based.
The subject of the next experiment is Candida albicans. Kind of experiment: Antimicrobial activity against Candida albicans UBC2. The class given is functional, organism-based.
The subject of another experiment is Bacillus subtilis. Briefly: Antimicrobial activity against Bacillus subtilis CECT39. The class given is functional.
In a further experiment the test system is Staphylococcus aureus. Briefly: Antimicrobial activity against Staphylococcus aureus ATCC 6538. The class given is functional.
The test system of the next experiment is Salmonella typhimurium. Briefly: Antimicrobial activity against sSalmonella Typhimurium UBC1. The class given is functional, organism-based. To be noted: Salmonella enterica subsp. enterica serovar Typhimurium.

Values after ≈ are worked out from the molar mass of the structure shown. Active and inactive are the calls of the source. The rule behind the calls is not given here.

Turning to `COC(=O)[C@@]1(C)C[C@@H]2[C@](C)(CC1=O)C[C@H](O)[C@]1(C)C3=CC=C4C(=CC(=O)C(O)=C4C)[C@]3(C)CC[C@@]21C`, the result in the experiment with Escherichia coli, with Candida albicans and with Salmonella typhimurium was inactive. In addition, the minimum inhibitory concentration (MIC) was determined as 1.25 µg/mL (≈ 2.53 µM) with Bacillus subtilis and 5 µg/mL (≈ 10.1 µM) against Staphylococcus aureus.
